The values below come from article PMC8484864 (Peptides, 2021).

Data set [1] is described as follows: human plasma, pooled from four healthy human donors. Particulars: 37 °C, up to 240 min.
Data set [2] is described as follows: human kidney homogenised in 50 mM HEPES solution, pH 7.4. Particulars: 37 °C, up to 120 min.
Another data set deals with furin. The experiment in a line: buffer-based ELA-32 digestion study. Particulars: cited from earlier work.
A short description of a further data set: rat plasma in vitro. Particulars: cited from earlier work.
In the next data set the test system is apelin receptor. Particulars: SAR study of short ELA fragments; cited from earlier work.

Entries after “also recorded” stand apart in the source; their conditions may differ.

Regarding QRPVNLTMRRKLRKHNCLQRRCMPLHSRVPFP, in data set [1], the cleaved bond result was “R-R and L-R, major, 60 min and R-K, first_seen, within 2 min and H-N, major, 60 min and Arg21-Cys22, major, 60 min and proline-phenylalanine”. Besides, the fragment found result in data set [2] is “ELA-23, earliest time points; also recorded: ELA-17, 60 min”; with furin it was “ELA-11”; in “rat plasma in vitro”, “ELA-22; also recorded: ELA-32(1-9)”.

On to “LHSRVPFP [ELA-8, ELA-32 fragment from loss of N-terminal amino acids]”, for which the “binding to the apelin receptor (in words)” value with apelin receptor is reported as “completely lost its ability to bind the apelin receptor”.
